Assay [1] has as its target T1, FAK (Homo sapiens, UniProt Q05397). Description: Cell-based capture ELISA for inhibition of FAK autophosphorylation [pY397] in MiaPaCa2 cells. The settings on record: MIA-PaCa2 cells, + 50% mouse plasma (Table 3); read-out: Mean FAK Cell Mechanistic IC50 + 50% mP MIA-PaCa2. The method, then:
Cell-Based Assays for Inhibition of FAK Autophosphorylation: MiaPaCa2 and U87MG
ELISA kit from Invitrogen (KHO0441).
Reagents Provided in Biosource FAK [pY397]
The cells were then suspended in cell assay medium.

Assay [2] concerns the target T1, FAK. The assay is described as follows: biochemical.

T1 sequence (Q05397 whole entry): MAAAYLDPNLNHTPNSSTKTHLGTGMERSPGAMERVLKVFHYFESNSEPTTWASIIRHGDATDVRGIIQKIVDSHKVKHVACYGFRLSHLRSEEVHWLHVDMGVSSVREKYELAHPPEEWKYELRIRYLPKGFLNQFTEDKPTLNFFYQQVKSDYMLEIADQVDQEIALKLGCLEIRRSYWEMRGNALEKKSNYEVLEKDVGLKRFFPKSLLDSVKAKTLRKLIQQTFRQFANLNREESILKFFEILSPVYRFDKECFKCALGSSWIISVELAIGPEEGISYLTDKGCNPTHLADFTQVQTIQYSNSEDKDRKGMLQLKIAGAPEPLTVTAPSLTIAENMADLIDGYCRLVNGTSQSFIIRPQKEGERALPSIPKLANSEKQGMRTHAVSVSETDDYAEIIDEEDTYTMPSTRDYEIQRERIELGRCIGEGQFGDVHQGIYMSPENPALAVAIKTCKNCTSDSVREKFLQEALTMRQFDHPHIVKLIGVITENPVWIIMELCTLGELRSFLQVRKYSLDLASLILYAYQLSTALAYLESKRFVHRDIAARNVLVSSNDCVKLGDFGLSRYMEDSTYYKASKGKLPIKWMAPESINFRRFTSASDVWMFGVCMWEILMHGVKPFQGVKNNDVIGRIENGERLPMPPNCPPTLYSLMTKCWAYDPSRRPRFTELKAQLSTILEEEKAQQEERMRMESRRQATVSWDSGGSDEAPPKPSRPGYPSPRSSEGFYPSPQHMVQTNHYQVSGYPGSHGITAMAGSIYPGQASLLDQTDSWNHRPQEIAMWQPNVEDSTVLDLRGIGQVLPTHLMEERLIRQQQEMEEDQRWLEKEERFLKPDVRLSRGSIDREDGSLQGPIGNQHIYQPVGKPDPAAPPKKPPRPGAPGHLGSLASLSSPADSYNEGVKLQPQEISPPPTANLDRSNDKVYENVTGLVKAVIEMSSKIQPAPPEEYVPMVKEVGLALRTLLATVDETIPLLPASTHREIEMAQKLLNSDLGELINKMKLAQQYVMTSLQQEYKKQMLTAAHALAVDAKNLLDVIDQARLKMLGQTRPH

The IC50 is the concentration needed to halve the response being measured. On to `CCOP(=O)(Cc1ccc(Nc2ncc(C(F)(F)F)c(Nc3ccc(C(=O)N4CCCC4)c4c3C(=O)N(C)C4)n2)c(OC)c1)OCC` [Example 117, Diethyl (3-methoxy-4-{[4-{[2-methyl-3-oxo-7-(pyrrolidin-1-ylcarbonyl)-2,3-dihydro-1H-isoindol-4-yl]amino}-5-(trifluoromethyl)pyrimidin-2-yl]amino}benzyl)phosphonate], for which the IC50 on FAK [1] and at FAK [2] was less than 1000 nM throughout.
Regarding `CCOP(=O)(Cc1ccc(Nc2ncc(C(F)(F)F)c(Nc3ccc(C(=O)OC)c4c3C(=O)N(C)C4)n2)c(OC)c1)OCC` [Example 119, Methyl 7-{[2-({4-[(diethoxyphosphoryl)methyl]-2-methoxyphenyl}amino)-5-(trifluoromethyl)pyrimidin-4-yl]amino}-2-methyl-1-oxo-2,3-dihydro-1H-isoindole-4-carboxylate], the IC50 at FAK [1] and against FAK [2] was less than 1000 nM throughout.
For `COc1cc(CP(=O)(OCC(F)(F)F)OCC(F)(F)F)ccc1Nc1ncc(C(F)(F)F)c(Nc2cccc3c2C(=O)N(C)C3)n1` [Example 124, Bis(2,2,2-trifluoroethyl) [3-methoxy-4-({4-[(2-methyl-3-oxo-2,3-dihydro-1H-isoindol-4-yl)amino]-5-(trifluoromethyl)pyrimidin-2-yl}amino)benzyl]phosphonate], the IC50 on FAK [1] and against FAK [2] was less than 1000 nM throughout.
Regarding `CCOP(=O)(Cc1ccc(Nc2ncc(C(F)(F)F)c(Nc3ccc(-c4cnn(C)c4)cc3C(=O)NC)n2)cc1)OCC` [Example 125, Diethyl (4-{[4-{[2-(methylcarbamoyl)-4-(1-methyl-1H-pyrazol-4-yl)phenyl]amino}-5-(trifluoromethyl)pyrimidin-2-yl]amino}benzyl)phosphonate], the IC50 at FAK [1] and against FAK [2] was less than 1000 nM in each case.
Regarding `CCOP(=O)(Cc1ccc(Nc2ncc(C(F)(F)F)c(Nc3ccc(C(=O)O)c4c3C(=O)N(C)C4)n2)cc1)OCC` [Example 128, 7-{[2-({4-[(Diethoxyphosphoryl)methyl]phenyl}amino)-5-(trifluoromethyl)pyrimidin-4-yl]amino}-2-methyl-1-oxo-2,3-dihydro-1H-isoindole-4-carboxylic acid], the IC50 was 1000 to 10000 nM on FAK [1] and less than 1000 nM at FAK [2].
Turning to `CCOP(=O)(Cc1ccc(Nc2ncc(C(F)(F)F)c(Nc3ccc(C(=O)O)c4c3C(=O)N(C)C4)n2)c(OC)c1)OCC` [Example 129, 7-{[2-({4-[(Diethoxyphosphoryl)methyl]-2-methoxyphenyl}amino)-5-(trifluoromethyl)pyrimidin-4-yl]amino}-2-methyl-1-oxo-2,3-dihydro-1H-isoindole-4-carboxylic acid], the IC50 at FAK [1] is 1000 to 10000 nM; at FAK [2] it was less than 1000 nM.
For `CCOP(=O)(Cc1ccc(Nc2ncc(C(F)(F)F)c(Nc3cccc4ccn(C)c(=O)c34)n2)cc1)OCC` [Example 131, Diethyl [4-({4-[(2-methyl-1-oxo-1,2-dihydroisoquinolin-8-yl)amino]-5-(trifluoromethyl)pyrimidin-2-yl}amino)benzyl]phosphonate] the same measures were less than 1000 nM and less than 1000 nM.
Regarding `CCOP(=O)(Cc1ccc(Nc2ncc(C(F)(F)F)c(Nc3cccc4c3C(=O)N(C)CC4)n2)cc1)OCC` [Example 132, Diethyl [4-({4-[(2-methyl-1-oxo-1,2,3,4-tetrahydroisoquinolin-8-yl)amino]-5-(trifluoromethyl)pyrimidin-2-yl}amino)benzyl]phosphonate], the IC50 at FAK [1] and against FAK [2] was less than 1000 nM each time.
For `CCOP(=O)(Cc1ccc(Nc2ncc(C(F)(F)F)c(Nc3ccc(-c4cnn([C@H]5CC[C@H](O)CC5)c4)cc3C(=O)NC)n2)cc1)OCC` [Example 137, Diethyl (4-{[4-({4-[1-(trans-4-hydroxycyclohexyl)-1H-pyrazol-4-yl]-2-(methylcarbamoyl)phenyl}amino)-5-(trifluoromethyl)pyrimidin-2-yl]amino}benzyl)phosphonate], the IC50 was 1000 to 10000 nM on FAK [1] and less than 1000 nM against FAK [2].
In the case of `CCOP(=O)(Cc1ccc(Nc2ncc(C(F)(F)F)c(Nc3ccc([C@H]4CC[C@@H](O)CC4)cc3C(=O)NC)n2)cc1)OCC` [Example 138, Diethyl (4-{[4-{[4-(cis-4-hydroxycyclohexyl)-2-(methylcarbamoyl)phenyl]amino}-5-(trifluoromethyl)pyrimidin-2-yl]amino}benzyl)phosphonate], the IC50 at FAK [1] and against FAK [2] was less than 1000 nM each time.
For the compound `CCOP(=O)(Cc1ccc(Nc2ncc(C(F)(F)F)c(Nc3ccc([C@H]4CC[C@@H](O)CC4)cc3C(=O)NC)n2)c(OC)c1)OCC` [Example 140, Diethyl (4-{[4-{[4-(cis-4-hydroxycyclohexyl)-2-(methylcarbamoyl)phenyl]amino}-5-(trifluoromethyl)pyrimidin-2-yl]amino}-3-methoxybenzyl)phosphonate], the IC50 at FAK [1] and at FAK [2] was less than 1000 nM throughout.
Regarding `CCOP(=O)(Cc1ccc(Nc2ncc(C(F)(F)F)c(Nc3ccc(-c4ccn(CCO)n4)c4c3C(=O)N(C)C4)n2)cc1)OCC` [Example 142, Diethyl (4-{[4-({7-[1-(2-hydroxyethyl)-1H-pyrazol-3-yl]-2-methyl-3-oxo-2,3-dihydro-1H-isoindol-4-yl}amino)-5-(trifluoromethyl)pyrimidin-2-yl]amino}benzyl)phosphonate], the IC50 on FAK [1] and against FAK [2] was less than 1000 nM each time.
As to `CCOP(=O)(O)Cc1ccc(Nc2ncc(C(F)(F)F)c(Nc3ccccc3C(=O)NC)n2)c(OC)c1` [Example 143, Ethyl hydrogen (3-methoxy-4-{[4-{[2-(methylcarbamoyl)phenyl]amino}-5-(trifluoromethyl)pyrimidin-2-yl]amino}benzyl)phosphonate], the IC50 on FAK [1] and on FAK [2] was less than 1000 nM throughout.
Regarding `CCOP(=O)(Cc1ccc(Nc2ncc(C(F)(F)F)c(Nc3cccc4c3C(=O)N(C)C4(C)C)n2)c(OC)c1)OCC` [Example 148, Diethyl [3-methoxy-4-({5-(trifluoromethyl)-4-[(1,1,2-trimethyl-3-oxo-2,3-dihydro-1H-isoindol-4-yl)amino]pyrimidin-2-yl}amino)benzyl]phosphonate], the IC50 is 1000 to 10000 nM at FAK [1] and less than 1000 nM at FAK [2].
For `CCOP(=O)(Cc1ccc(Nc2ncc(C(F)(F)F)c(Nc3cccc4c3C(=O)N(C)C4(C)C)n2)cc1)OCC` [Example 149, Diethyl [4-({5-(trifluoromethyl)-4-[(1,1,2-trimethyl-3-oxo-2,3-dihydro-1H-isoindol-4-yl)amino]pyrimidin-2-yl}amino)benzyl]phosphonate] the same measures were 1000 to 10000 nM and less than 1000 nM.
Turning to `CCOP(=O)(Cc1ccc(Nc2ncc(C(F)(F)F)c(Nc3ccc(C#N)cc3C(=O)NC)n2)c(OC)c1)OCC` [Example 151, Diethyl (4-{[4-{[4-cyano-2-(methylcarbamoyl)phenyl]amino}-5-(trifluoromethyl)pyrimidin-2-yl]amino}-3-methoxybenzyl)phosphonate], the IC50 on FAK [1] and at FAK [2] was less than 1000 nM each time.
With `CCOP(=O)(Cc1ccc(Nc2ncc(C(F)(F)F)c(Nc3ccc(-c4cnn([C@H]5CC[C@H](O)CC5)c4)c4c3C(=O)N(C)C4)n2)cc1)OCC` [Example 164, Diethyl (4-{[4-({7-[1-(trans-4-hydroxycyclohexyl)-1H-pyrazol-4-yl]-2-methyl-3-oxo-2,3-dihydro-1H-isoindol-4-yl}amino)-5-(trifluoromethyl)pyrimidin-2-yl]amino}benzyl) phosphonate], the IC50 on FAK [1] and at FAK [2] was less than 1000 nM throughout.

The record behind these values is patent US9096624B2 (OSI Pharmaceuticals, LLC, priority 2009, dated 2015).
